Laboratory results published in PMC3561363, “A Novel Retro-Inverso Peptide Inhibitor Reduces Amyloid Deposition, Oxidation and Inflammation and Stimulates Neurogenesis in the APPswe/PS1ΔE9 Mouse Model of Alzheimer’s Disease” (PLoS ONE, 2013).
Where a SMILES comes first, the peptide text is derived from it.

Columns and labels:
[1] = test system: Human oligomerised Aβ; test: Soluble Aβ oligomer levels in brain, sandwich ELISA; format: in vivo, human Aβ in APP/PS1 mice; conditions: 100 nmol/kg i.p. once daily, 21 days, 10 months old APP/PS1 mice, vs saline; p<0.01, 4 animals per group
Protocol: (§1) APPswe/PS1ΔE9 mice with a C57Bl/6 background (APP/PS1 mice) were obtained from the Jackson lab (http://research.jax.org/repository/alzheimers.html). […] To look at the effects of RI-OR2-TAT on mouse brain pathology (experiment 2), 8 female 10-months-old APP/PS1 mice were used. The animals were housed in single cages in a temperature controlled holding room (21.5°C±1) with 12∶12 h light and dark cycle. Food and water was available ad libitum.
For experiment 2, 4 animals were injected intraperitonially (i.p.) with 0.9% NaCl (vehicle control) and the other 4 with RI-OR2-TAT (100 nmol/kg in 0.9% NaCl) once daily, for 21 days. On the 22nd day, the animals were perfused transcardially with ice-cold PBS and 4% paraformaldehyde and then the brains were removed and post-fixed in 4% ice cold paraformaldehyde.
Human oligomerised Aβ was measured using a kit purchased from Invitrogen, according to the manufacturer’s instructions. Briefly, the right hemispheres from the brains of transgenic APP/PS1 mice treated with RI-OR2-TAT, or controls, were pooled separately and homogenized. Quantification of total protein was determined using the Bradford protein assay and was measured on a Nanophotometer (Implen, Germany). The homogenates were centrifuged at 100,000 g at 4°C for 1 h. […] The final Aβ oligomer values were determined following normalization of total protein levels.

[2] = test system: activated microglia (Iba1) in APP/PS1 mouse cortex; test: Activated microglia, Iba1 immunostaining, cortex; format: in vivo; conditions: 100 nmol/kg i.p. once daily, 21 days, 10 months old APP/PS1 mice, vs saline, p<0.0001, 4 animals per group
Protocol: as §1
(§2) For experiment 2, 4 animals were injected intraperitonially (i.p.) with 0.9% NaCl (vehicle control) and the other 4 with RI-OR2-TAT (100 nmol/kg in 0.9% NaCl) once daily, for 21 days. […]
(§3) For experiment 2 (effects on brain pathology), sections were examined for activated microglia (using anti-Iba-1 antibody), oxidative stress (anti-8-oxo-guanine antibody), immature neurons (anti-doublecourtin antibody) or total plaque load (anti-Aβ antibody). […] Oxidative stress was assessed by denaturing DNA in each section using 2N HCl and the sections were then stained for 8-oxo guanine (1∶200 dilution, MAB3560, Millipore). Young immature neurons were detected by immunostaining for doublecortin (1∶200 dilution, sc-66911, Santa Cruz Biotechnology). Total plaque load was quantified by immunostaining for β-amyloid (1∶200 dilution, Invitrogen, 71–5800).
(§4) All sections were visualized using an Axio Scope 1 fluorescence microscope (Zeiss, Germany). […]

[3] = test system: Aβ42; test: Atomic force microscopy (AFM) of Aβ42 aggregation; format: biochemical; conditions: 1∶2 molar ratio RI-OR2-TAT:Aβ42 (12.5 µM:25 µM), 24 h, PBS pH 7.4
Protocol: Aβ42 was incubated at 25 µM in the presence or absence of 12.5 µM RI-OR2-TAT in PBS, pH 7.4, for 24 h. Samples were diluted 1∶10 in PBS and then a 2 µl aliquot was deposited onto the surface of freshly cleaned mica and allowed to dry. Images were obtained in tapping mode using a Multimode™ SPM NanoScope IIIa microscope (Digital Instruments, New York, USA). Silicon cantilever tips measuring 125 µm long, 30 µm wide and with a tip radius <10 nm were used (Budget Sensors, Bulgaria). The resonance frequency was 300 kHz and force constants 40 N/m. All images were first order flattened and edited using WSxM 5.0 Develop 4.3 software, (Nanotech, Madrid, Spain).

[4] = test system: SHSY-5Y neuroblastoma cells exposed to pre-aggregated Aβ42; test: Protection against Aβ42 toxicity, LDH assay; format: cell-based; conditions: 0.5, 1, 5 or 10 µM inhibitor, 5 µM pre-aggregated Aβ42, 24 h, Optimem
Protocol: For cell toxicity assays, SHSY-5Y neuroblastoma cells were maintained in 10% Fetal Calf Serum supplemented Dulbecco’s Modified Eagle Medium (DMEM, Gibco) under standard mammalian cell culture conditions. The cells were transferred to sterile 96-well growth plates at 20,000 cells/well and 4 wells per condition. To test for any toxic effects of RI-OR2–TAT alone on the cells, they were left to adhere for 24 h before the addition of the inhibitor (at 12.5, 25, 50, 100 and 200 µM), in DMEM. To assess the ability of RI-OR2–TAT to protect against Aβ toxicity, the cell growth medium was changed to Optimem (Invitrogen) and Aβ42, pre-aggregated (at 100 µM) for 24 h at 25°C in PBS, was added to the cells at a concentration of 5 µM, together with various amounts (0, 0.1, 0.5, 1, 5 or 10 µM) of RI-OR2–TAT. In each case, after a further 24 h incubation period, the viability of the cells was assessed using a CytoTox 96® Non-Radioactive Cytotoxicity Assay (LDH) Assay (Promega) kit.

[5] = test system: Aβ42; test: Thioflavin T (ThT) assay for Aβ fibrils; format: biochemical
Protocol: This method was the same as that published previously. Briefly, 60 µl samples of solutions containing Aβ42 (25 µM), ThT (15 µM) and between 0 and 125 µM RI-OR2 or RI-OR2–TAT, in 10 mM phosphate buffered saline (PBS), pH 7.4, were incubated in sealed, black, clear-bottomed 384-well plates (Corning). ThT fluorescence was monitored every 10 mins (λex = 442 nm, λem = 483 nm) for 48 h at 30°C in a Biotek Synergy 2 plate reader.

[6] = test system: β-amyloid plaques in APP/PS1 mouse cortex; test: Amyloid plaque load, β-amyloid immunostaining, cortex; format: in vivo; conditions: 100 nmol/kg i.p. once daily, 21 days, 10 months old APP/PS1 mice, vs saline, p<0.0001, N = 4 per group
Protocol: as §1, §2, §3, §4

For CC(=O)N[C@H](CCCNC(=N)N)C(=O)NCC(=O)N[C@H](Cc1ccccc1)C(=O)N[C@H](Cc1ccccc1)C(=O)N[C@@H](C(=O)N[C@H](CC(C)C)C(=O)N[C@H](CCCCN)C(=O)NCC(=O)N[C@H](CCCNC(=N)N)C(=O)N[C@H](CCCNC(=N)N)C(=O)N[C@H](CCCNC(=N)N)C(=O)N[C@H](CCCNC(=N)N)C(=O)N[C@H](CCC(N)=O)C(=O)N[C@H](CCCNC(=N)N)C(=O)N[C@H](CCCNC(=N)N)C(=O)N[C@H](CCCCN)C(=O)N[C@H](CCCCN)C(=O)N[C@H](CCCNC(=N)N)C(=O)NCC(=O)N[C@H](Cc1ccc(O)cc1)C(N)=O)C(C)C [RI-OR2-TAT, Ac-rGffvlkGrrrrqrrkkrGy-NH2] (HELM PEPTIDE1{[ac].[dR].G.[dF].[dF].[dV].[dL].[dK].G.[dR].[dR].[dR].[dR].[dQ].[dR].[dR].[dK].[dK].[dR].G.[dY].[am]}$$$$V2.0), the “reduction of soluble Aß oligomer levels in brain” value [1] was 25%, the “reduction of number of activated microglia” value [2] was 44% and the “inhibition of oligomer formation by AFM” value [3] was “clear inhibition of oligomer formation”. The “protection against toxic effects of pre-aggregated Aβ42” value [4] was “protected against the toxic effects”, the “ThT inhibition compared with RI-OR2” value ([5]; 48 h, 25 µM Aβ42, PBS pH 7.4, same molar ratios) was “slightly better inhibitor than RI-OR2” and the “ThT fluorescence after incubation of Aβ42 with inhibitor” value ([5]; 48 h, 30°C, 25 µM Aβ42, 15 µM ThT, 10 mM PBS pH 7.4, molar ratios 1∶1, 1∶2, 1∶4 and 1∶10 (inhibitor:Aβ42)) was “lower fluorescence”. For the same compound, the “inhibition of Aβ42 aggregation (Fig. 1)” value ([5]; ThT, 25 µM Aβ42, 48 h, figure title) was “inhibit the aggregation of Aβ42” and the “reduction of amyloid plaque load” value [6] was 32%.
